US4612321A, “5-pyridyl-1,3-thiazole derivatives” (Takeda Chemical Industries, Inc., priority 1983, dated 1986)

Tested on: Carrageenin edema (right-hind paw)
Assay: Anti-inflammatory activity; Carrageenin edema (C.E. Method)
Type: in vivo, rats (Jcl: SD, male)
Conditions: rat, oral, 1 h before carrageenin; edema measured 3 hr later; dose not given
Description: A. Anti-inflammatory activity; Carrageenin edema (C.E. Method)
The anti-inflammatory activities of test compounds were estimated in a group [Six Jcl: SD rats (male, weighing 180-220 g)] by the method of Winter et al. [Proc. Soc. Exp. Biol. 111, 544 (1962)].
After measuring the volume of the right-hind paw (a), the rats were given orally 5 ml of water. One hour after oral administration of the test compounds, 0.05 ml each of a 1% carrageenin solution in physiological saline was subcutaneously injected at the sole of right-hind paw. Three hr. later, the volume of the right-hind paw was measured (b). The volume of edema was obtained from the difference […] between the two volumes. By comparing the volume of edema of the group, to which test compound was administered, with that of the group, to which no test compound was administered, an inhibitory effect of the compound on the edema was determined.

SMILES	C.E. Method (inhibitory effect on the carrageenin edema)
CNc1nc(-c2ccc(OC)cc2)c(-c2cccnc2)s1 [Compound No. 1, 4-(4-methoxyphenyl)-2-methylamino-5-(3-pyridyl)-1,3-thiazole]	60
Nc1nc(-c2ccccc2)c(-c2cccnc2)s1 [Compound No. 4]	63.7
COc1ccc(-c2nc(N)sc2-c2cccnc2)cc1 [compound 2, 2-amino-4-(4-methoxyphenyl)-5-(3-pyridyl)-1,3-thiazole]	77.1
Nc1nc(-c2ccc(O)cc2)c(-c2cccnc2)s1 [compound 9]	16.9
Nc1nc(-c2ccccc2)c(-c2ccccn2)s1 [compound 13]	7.0
COc1ccc(-c2nc(N)sc2-c2ccncc2)cc1 [compound 17]	48.2
COc1ccc(-c2nc(-c3ccccc3)sc2-c2cccnc2)cc1 [compound 28, 2-phenyl-4-(4-methoxyphenyl)-5-(3-pyridyl)-1,3-thiazole]	15.7

Tested on: Phenylquinone writhing syndrome
Assay: Analgesic action: Phenylquinone writhing syndrome (P.Q. Method)
Type: in vivo, mice (Slc:ICR, male)
Conditions: mouse, oral, 25 mg/kg, 30 minutes before phenylquinone
Description: B. Analgesic action: Phenylquinone writhing syndrome (P.Q. Method)
The test was conducted by following the method Siegmund et al. [Proc. Soc. exp. Biol. Med. 95, 729 (1957).] employing a group [ten Slc:ICR mice (male, 4-weeks old, weighing 20±2 g)]. Test compounds were administered orally 30 minutes before intraperitoneal injection of 0.02% phenylquinone by 0.1 ml/body weight of 10 g. Then, the frequency of responses, i.e. writhing and stretching was counted in each animal for 20 minutes. The average frequencies in the test group and the control group were compared, and an inhibitory effect of the compounds on this response was determined.

SMILES	P.Q. Method (inhibitory effect on writhing and stretching)
CNc1nc(-c2ccc(OC)cc2)c(-c2cccnc2)s1 [Compound No. 1, 4-(4-methoxyphenyl)-2-methylamino-5-(3-pyridyl)-1,3-thiazole]	96.8

Same assay, conditions: mouse, oral, 50 mg/kg, 30 minutes before phenylquinone

SMILES	P.Q. Method (inhibitory effect on writhing and stretching)
Nc1nc(-c2ccccc2)c(-c2cccnc2)s1 [Compound No. 4]	78.9
COc1ccc(-c2nc(N)sc2-c2cccnc2)cc1 [compound 2, 2-amino-4-(4-methoxyphenyl)-5-(3-pyridyl)-1,3-thiazole]	52.6
Nc1nc(-c2ccc(O)cc2)c(-c2cccnc2)s1 [compound 9]	40.5
Nc1nc(-c2ccccc2)c(-c2ccccn2)s1 [compound 13]	67.5
COc1ccc(-c2nc(N)sc2-c2ccncc2)cc1 [compound 17]	80.7
COc1ccc(-c2nc(-c3ccccc3)sc2-c2cccnc2)cc1 [compound 28, 2-phenyl-4-(4-methoxyphenyl)-5-(3-pyridyl)-1,3-thiazole]	63.3

Same assay, conditions: statement in words

SMILES	analgesic action
COc1ccc(-c2nc(N)sc2-c2cccnc2)cc1 [2-amino-4-(4-methoxyphenyl)-5-(3-pyridyl)-1,3-thiazole]	particularly excellent
CCc1nc(-c2ccc(OC)cc2)c(-c2cccnc2)s1 [2-ethyl-4-(4-methoxyphenyl)-5-(3-pyridyl)-1,3-thiazole]	particularly excellent
CCNc1nc(-c2ccc3c(c2)OCO3)c(-c2cccnc2)s1 [2-ethylamino-4-(3,4-methylenedioxyphenyl)-5-(3-pyridyl)-1,3-thiazole]	particularly excellent
CCNc1nc(-c2ccc3c(c2)CCC3)c(-c2cccnc2)s1 [2-ethylamino-4-(5-indanyl)-5-(3-pyridyl)-1,3-thiazole]	particularly excellent
CNc1nc(-c2ccc3c(c2)OCO3)c(-c2cccnc2)s1 [2-methylamino-4-(3,4-methylenedioxyphenyl)-5-(3-pyridyl)-1,3-thiazole]	particularly excellent
CNc1nc(-c2ccc(OC)cc2)c(-c2cccnc2)s1 [Compound No. 1, 4-(4-methoxyphenyl)-2-methylamino-5-(3-pyridyl)-1,3-thiazole]	particularly excellent
CNc1nc(-c2ccc3c(c2)CCC3)c(-c2cccnc2)s1 [compound 79, 4-(5-indanyl)-2-methylamino-5-(3-pyridyl)-1,3-thiazole]	particularly excellent

Tested on: Water-immersion stress-induced gastric ulcer
Assay: Water-immersion stress-induced gastric ulcer (W.I. Method)
Type: in vivo, rats (SD, male)
Conditions: rat, 50 mg/kg, 23° C. water immersion for five hours
Description: C. Water-immersion stress-induced gastric ulcer (W.I. Method)
Male SD rats (7-weeks old, weighing 190-240 g) were used after a 24 hr. fast in groups of six animals. According to the method of Takagi and Okabe [Jpn. J. Pharmacol., 18, 9 (1968)], the animals were placed in a stress cage made of stainless steel and immersed vertically to the level of xiphoid process in a water bath maintained at 23° C. for five hours. The length (mm) of individual lesions in fundic mucosa was measured under a dissecting microscope with a 1-mm square-grid eye piece (X10), and the sum of the length of individual lesions for each stomach was used as an ulcer index. The ulcer index of the test group was compared with that of the control group, and the inhibition ratio was calculated.

SMILES	W.I. Method (inhibition ratio of ulcer index)
CNc1nc(-c2ccc(OC)cc2)c(-c2cccnc2)s1 [Compound No. 1, 4-(4-methoxyphenyl)-2-methylamino-5-(3-pyridyl)-1,3-thiazole]	86
Nc1nc(-c2ccccc2)c(-c2cccnc2)s1 [Compound No. 4]	74
COc1ccc(-c2nc(N)sc2-c2cccnc2)cc1 [compound 2, 2-amino-4-(4-methoxyphenyl)-5-(3-pyridyl)-1,3-thiazole]	70
Nc1nc(-c2ccc(O)cc2)c(-c2cccnc2)s1 [compound 9]	71
Nc1nc(-c2ccccc2)c(-c2ccccn2)s1 [compound 13]	66
COc1ccc(-c2nc(N)sc2-c2ccncc2)cc1 [compound 17]	79
COc1ccc(-c2nc(-c3ccccc3)sc2-c2cccnc2)cc1 [compound 28, 2-phenyl-4-(4-methoxyphenyl)-5-(3-pyridyl)-1,3-thiazole]	33

Same assay, conditions: statement in words

SMILES	anti-ulcer action
COc1ccc(-c2nc(N)sc2-c2cccnc2)cc1 [2-amino-4-(4-methoxyphenyl)-5-(3-pyridyl)-1,3-thiazole]	particularly excellent
CCc1nc(-c2ccc(OC)cc2)c(-c2cccnc2)s1 [2-ethyl-4-(4-methoxyphenyl)-5-(3-pyridyl)-1,3-thiazole]	particularly excellent
CCNc1nc(-c2ccc3c(c2)OCO3)c(-c2cccnc2)s1 [2-ethylamino-4-(3,4-methylenedioxyphenyl)-5-(3-pyridyl)-1,3-thiazole]	particularly excellent
CCNc1nc(-c2ccc3c(c2)CCC3)c(-c2cccnc2)s1 [2-ethylamino-4-(5-indanyl)-5-(3-pyridyl)-1,3-thiazole]	particularly excellent
CNc1nc(-c2ccc3c(c2)OCO3)c(-c2cccnc2)s1 [2-methylamino-4-(3,4-methylenedioxyphenyl)-5-(3-pyridyl)-1,3-thiazole]	particularly excellent
CNc1nc(-c2ccc(OC)cc2)c(-c2cccnc2)s1 [Compound No. 1, 4-(4-methoxyphenyl)-2-methylamino-5-(3-pyridyl)-1,3-thiazole]	particularly excellent
CNc1nc(-c2ccc3c(c2)CCC3)c(-c2cccnc2)s1 [compound 79, 4-(5-indanyl)-2-methylamino-5-(3-pyridyl)-1,3-thiazole]	particularly excellent

Tested on: mice
Assay: Acute toxicity Test in mice
Type: in vivo, mice (ICR, male)
Conditions: mouse, oral, 500 mg/kg, one week, groups of five
Description: D. Acute toxicity Test in mice
Five-weeks old ICR-male mice were used in groups of five animals. Each animal was orally administered with 500 mg/kg of each test compound. Then, during the subsequent one week, the number of dead animals was counted.

SMILES	Acute Toxicity (number of dead animals / animals)
CNc1nc(-c2ccc(OC)cc2)c(-c2cccnc2)s1 [Compound No. 1, 4-(4-methoxyphenyl)-2-methylamino-5-(3-pyridyl)-1,3-thiazole]	0/5
Nc1nc(-c2ccccc2)c(-c2cccnc2)s1 [Compound No. 4]	0/5
COc1ccc(-c2nc(N)sc2-c2cccnc2)cc1 [compound 2, 2-amino-4-(4-methoxyphenyl)-5-(3-pyridyl)-1,3-thiazole]	0/5
Nc1nc(-c2ccc(O)cc2)c(-c2cccnc2)s1 [compound 9]	0/5
Nc1nc(-c2ccccc2)c(-c2ccccn2)s1 [compound 13]	0/5
COc1ccc(-c2nc(N)sc2-c2ccncc2)cc1 [compound 17]	0/5
COc1ccc(-c2nc(-c3ccccc3)sc2-c2cccnc2)cc1 [compound 28, 2-phenyl-4-(4-methoxyphenyl)-5-(3-pyridyl)-1,3-thiazole]	0/5

Tested on: thromboxane A2 (TXA2) synthetase
Assay: thromboxane A2 (TXA2) synthetase inhibiting action
Type: biochemical
Conditions: statement in words, no test data

thromboxane synthetase inhibiting action	SMILES
particularly excellent	O=C(O)CCCc1nc(-c2ccccc2)c(-c2cccnc2)s1
particularly excellent	COc1ccc(-c2nc(CCCC(=O)O)sc2-c2cccnc2)cc1 [compound 43, 2-(3-carboxypropyl)-4-(4-methoyphenyl)-5-(3-pyridyl)-1,3-thiazole]

Tested on: platelet aggregation
Assay: platelet aggregation controlling (inhibiting) action
Type: cell-based
Conditions: statement in words, no test data

SMILES	platelet aggregation controlling action
COc1ccc(-c2nc(C3CCCCC3)sc2-c2cccnc2)cc1 [2-cyclohexyl-4-(4-methoxyphenyl)-5-(3-pyridyl)-1,3-thiazole]	partienlarly excellent
c1ccc(-c2nc(C3CCCCC3)sc2-c2cccnc2)cc1 [2-cyclohexyl-4-phenyl-5-(3-pyridyl)-1,3-thiazole]	partienlarly excellent
COc1ccc(-c2nc(-c3ccccc3)sc2-c2cccnc2)cc1 [2-phenyl-4-(4-methoxyphenyl)-5-(3-pyridyl)-1,3-thiazole]	partienlarly excellent

Tested on: not listed separately
Assay: anti-pyretic action
Type: in vivo
Conditions: statement in words, no test data

SMILES	anti-pyretic action
COc1ccc(-c2nc(N)sc2-c2cccnc2)cc1 [2-amino-4-(4-methoxyphenyl)-5-(3-pyridyl)-1,3-thiazole]	particularly excellent
CCc1nc(-c2ccc(OC)cc2)c(-c2cccnc2)s1 [2-ethyl-4-(4-methoxyphenyl)-5-(3-pyridyl)-1,3-thiazole]	particularly excellent
CCNc1nc(-c2ccc3c(c2)OCO3)c(-c2cccnc2)s1 [2-ethylamino-4-(3,4-methylenedioxyphenyl)-5-(3-pyridyl)-1,3-thiazole]	particularly excellent
CCNc1nc(-c2ccc3c(c2)CCC3)c(-c2cccnc2)s1 [2-ethylamino-4-(5-indanyl)-5-(3-pyridyl)-1,3-thiazole]	particularly excellent
CNc1nc(-c2ccc3c(c2)OCO3)c(-c2cccnc2)s1 [2-methylamino-4-(3,4-methylenedioxyphenyl)-5-(3-pyridyl)-1,3-thiazole]	particularly excellent
CNc1nc(-c2ccc(OC)cc2)c(-c2cccnc2)s1 [Compound No. 1, 4-(4-methoxyphenyl)-2-methylamino-5-(3-pyridyl)-1,3-thiazole]	particularly excellent
CNc1nc(-c2ccc3c(c2)CCC3)c(-c2cccnc2)s1 [compound 79, 4-(5-indanyl)-2-methylamino-5-(3-pyridyl)-1,3-thiazole]	particularly excellent
